US11708357B2, “Crystal form of pyrrolidinyl urea derivative and application thereof” (ZHANGZHOU PIEN TZE HUANG PHARMACEUTICAL CO., LTD., priority 2020, dated 2023)

Key:
CYP3A4 = target: T1, CYP3A4 (Homo sapiens, UniProt P08684); experiment: Cytochrome P450 isozyme inhibitory activity test, CYP3A4; format: in vitro ADME; details: liver microsomes; human liver microsome
T1 construct: from tissue; host or cells: human liver microsomes
Protocol: (§1) The inhibitory activities of the test compound on different subtypes of human cytochrome P450 isozymes were determined. The test compound, standard inhibitor (100× final concentration), and a mixed substrate working solution were prepared; the microsome frozen in −80° C. refrigerator was thawed. […]

[1] = In vivo pharmacokinetic study in beagle dogs after single administration; details: male, dog, plasma, 2 mg/kg, 2 mpk intravenous injection
Protocol: Male beagle dogs were used as test animals, the concentration of the compound in blood after single administration was determined to evaluate the pharmacokinetic behavior.
Beagle dogs (Male, 6-12 kg, more than 6 months, Beijing Marshall Biotechnology Co., Ltd.).
The objective of the test was to study the pharmacokinetic characteristics of the test compound in non-rodent after intravenous injection and oral administration. In the experiment, the test compound was prepared into a clear solution or homogeneous suspension and administered to the beagle dogs by single intravenous injection or oral administration. In the intravenous injection group, the menstruum was a certain proportion of dimethyl sulfoxide in HP-β-cyclodextrin solution or a certain proportion of ethanol, polyethylene glycol 400 and physiological saline solution, the mixture was vortexed and subjected to ultrasonic treatment to prepare 2 mg/mL clear solution, then filtered with microporous membrane for later use; in the oral administration group, the menstruum was a certain proportion of dimethyl sulfoxide in HP-β-cyclodextrin solution or a certain proportion of sodium carboxymethyl cellulose solution, the test compound was mixed with the menstruum, vortexed and subjected to ultrasonic treatment to prepare 2 mg/mL homogeneous suspension for later use. After 2 mg/kg intravenous administration or 10 mg/kg oral administration to the Beagle dogs, a certain amount of whole blood samples were collected, centrifuged at 3000 g for 10 minutes, and the supernatant was separated to obtain plasma samples; then an acetonitrile solution containing internal standard with a volume 10 times that of the plasma sample was added to precipitate proteins, and then centrifuged; the supernatant was separated for analysis; LC-MS/MS analysis method was used to quantitatively analyze the blood drug concentration, and Phoenix WinNonlin software (Pharsight, USA) was used to calculate the pharmacokinetic parameters, such as peak concentration, time to peak concentration, clearance rate, half-life, area under the concentration-time curve, bioavailability, etc.
(§2) Among them, C0 is the initial concentration, T1/2 is the elimination half-life, Vdss is the steady-state apparent volume of distribution, Cl is the total clearance rate, AUC0-inf is the area under the plasma drug concentration-time curve from time 0 to infinity, Cmax is the peak concentration, Tmax is the time to peak concentration.

CYP1A2 = target: T2, CYP1A2 (Homo sapiens, UniProt P05177); experiment: Cytochrome P450 isozyme inhibitory activity test, CYP1A2; format: in vitro ADME; details: liver microsomes; human liver microsome
T2 construct: from tissue; host or cells: human liver microsomes
T2 sequence (P05177 1-516): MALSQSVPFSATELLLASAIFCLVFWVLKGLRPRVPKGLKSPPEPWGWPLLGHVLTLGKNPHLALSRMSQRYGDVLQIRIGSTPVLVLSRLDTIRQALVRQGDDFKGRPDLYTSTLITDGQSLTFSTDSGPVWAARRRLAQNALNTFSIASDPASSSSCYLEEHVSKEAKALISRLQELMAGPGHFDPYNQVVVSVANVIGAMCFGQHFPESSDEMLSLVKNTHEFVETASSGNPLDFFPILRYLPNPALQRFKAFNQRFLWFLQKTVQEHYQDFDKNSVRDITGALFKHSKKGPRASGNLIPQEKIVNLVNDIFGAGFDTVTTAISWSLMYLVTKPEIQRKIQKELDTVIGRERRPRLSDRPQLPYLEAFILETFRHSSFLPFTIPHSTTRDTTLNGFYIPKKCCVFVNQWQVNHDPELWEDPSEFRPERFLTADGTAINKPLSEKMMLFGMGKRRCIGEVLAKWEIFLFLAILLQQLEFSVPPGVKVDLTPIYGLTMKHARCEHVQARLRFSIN
Protocol: as §1

[2] = In vivo pharmacokinetic study in mice after single administration; design: species or system CD-1 mice; details: male, CD-1, mouse, plasma
Protocol: Male CD-1 mice were used as test animals, the concentration of the compound in blood was determined after single administration to evaluate the pharmacokinetic behavior.
CD-1 mice (male, 20-40 g, 6-9 weeks, Shanghai Sippr-Bk Laboratory Animal Co., Ltd.)
The pharmacokinetic characteristics of the test compound in rodents after intravenous injection and oral administration were tested by standard protocols, in the experiment, the test compound was prepared into a clear solution or homogeneous suspension, and administered to the mice by single intravenous injection and oral administration. In the intravenous injection group, the menstruum was a certain proportion of ethanol, Cremophor EL and physiological saline solution, the mixture was vortexed to prepare 1 mg/mL clear solution, then filtered with microporous membrane for later use; in the oral administration group, the menstruum was a certain proportion of methyl cellulose solution or certain proportion of methyl cellulose and Tween 80 aqueous solution, the test compound was mixed with the menstruum, and the mixture was vortexed to prepare 10 mg/mL clear or homogeneous suspension for later use. After 2 mg/kg intravenous administration or 100 mg/kg oral administration to the mice, a certain amount of whole blood samples were collected, centrifuged at 3200 g for 10 minutes, the supernatant was separated to obtain the plasma samples, and the samples were diluted multiple times with blank plasma according to actual needs. The plasma sample was added to acetonitrile solution containing the internal standard with a volume 20 times that of the plasma sample to precipitate proteins, and then centrifuged; the supernatant was separated, and water with a volume twice that of the supernatant was added to the supernatant, which was then centrifuged again; the supernatant was collected for analysis; LC-MS/MS analysis method was used to quantitatively analyze the blood drug concentration, and Phoenix WinNonlin software (Pharsight, USA) was used to calculate the pharmacokinetic parameters, such as peak concentration, time to peak concentration, clearance rate, half-life, area under the concentration-time curve, bioavailability, etc.
as §2

[3] = 2 mg/kg, 2 mpk intravenous injection
[4] = 100 mg/kg, 100 mpk oral administration

T1 sequence (P08684 whole entry): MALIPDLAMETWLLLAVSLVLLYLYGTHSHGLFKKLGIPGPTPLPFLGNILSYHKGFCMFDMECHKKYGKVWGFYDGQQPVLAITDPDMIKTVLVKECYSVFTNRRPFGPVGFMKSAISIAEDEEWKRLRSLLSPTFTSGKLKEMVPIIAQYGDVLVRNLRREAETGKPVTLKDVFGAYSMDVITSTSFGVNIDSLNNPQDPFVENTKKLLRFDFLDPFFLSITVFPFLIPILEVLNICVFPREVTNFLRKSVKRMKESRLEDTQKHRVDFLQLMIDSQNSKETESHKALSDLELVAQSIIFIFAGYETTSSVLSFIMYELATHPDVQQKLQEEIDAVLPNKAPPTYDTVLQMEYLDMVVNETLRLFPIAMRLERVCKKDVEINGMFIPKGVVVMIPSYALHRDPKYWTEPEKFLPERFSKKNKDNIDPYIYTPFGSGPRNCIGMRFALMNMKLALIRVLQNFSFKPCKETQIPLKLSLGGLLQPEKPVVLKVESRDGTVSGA

Structure (SMILES): COCCN1C[C@@H](n2ccc(F)c2)[C@H](NC(=O)Nc2c(C)c(-c3cnc(C4(F)COC4)nc3)nn2-c2ccccc2)C1 [Compound of formula (I)]
- IC50 at 10 min (CYP3A4): > 50 µM
- AUC(0-inf) [1]: 4.66 µM·h
- C0 [1]: 8.46 µM
- clearance [1]: 12.4 mL/min/kg
- half-life [1]: 26.4 min
- Vd ([1]; read-out: Vdss): 0.49 L/kg
- IC50 at 10 min (CYP1A2): > 50 µM
- AUC(0-inf) [2, 3]: 1.44 µM·h
- C0 [2, 3]: 2.72 µM
- clearance [2, 3]: 41.7 mL/min/kg
- half-life [2, 3]: 34.2 min
- Vd ([2]; 2 mg/kg, 2 mpk intravenous injection, read-out: Vdss): 1.54 L/kg
- AUC(0-inf) [2, 4]: 37.6 µM·h
- Cmax [2, 4]: 25.6 µM
- Tmax [2, 4]: 22.8 min
- bioavailability [2, 4]: 52.2%
- half-life [2, 4]: 55.2 min
